Laboratory results as given in ChEMBL document CHEMBL3826931, “Salinomycin Hydroxamic Acids: Synthesis, Structure, and Biological Activity of Polyether Ionophore Hybrids” (ACS Med Chem Lett, 2016).
Activity calls are given as the source filed them. No cut-off for these calls is given here.

Key:
[1] = Cytotoxicity against human JIMT1 cells after 72 hrs by MTT assay; assay type: functional, cell-based; details: JIMT-1, 72 h
[2] = system: MCF7; assay: Cytotoxicity against human MCF7 cells after 72 hrs by MTT assay; assay type: functional, cell-based; details: MCF7, 72 h
[3] = system: JIMT-1; assay: Reduction in aldehyde dehydrogenase levels in human JIMT1 cells at 5 to 10 uM by ALDEFLUOR assay; assay type: functional, cell-based
[4] = Ionophoric activity in large unilamellar POPC/POPG (3:1) vesicles assessed as relaxation of potassium coupled-proton gradient by measuring decrease in internal pH at 100 pM after 300 secs by ratiometric pH reporter pyranin based spectroscopic analysis; assay type: ADME; details: 5 min, 0.0001 µM
[5] = Ionophoric activity in large unilamellar POPC/POPG (3:1) vesicles assessed as relaxation of potassium coupled-proton gradient by measuring decrease in internal pH at 1 pM after 300 secs by ratiometric pH reporter pyranin based spectroscopic analysis; assay type: ADME; details: 5 min
[6] = system: JIMT-1; assay: Reduction in aldehyde dehydrogenase levels in human JIMT1 cells at 0.52 uM by ALDEFLUOR assay (reference value: 30 to 60%); assay type: functional; design: scale not given: the % may be the effect or the level left

Row | Activity [4] | SMILES | IC50 [1] [µM] | IC50 [2] [µM] | Activity [3] | Activity [5] | Activity [6] [%]
1 | – | CC[C@@H](C(=O)[C@@H](C)[C@@H](O)[C@H](C)[C@@H]1O[C@@H]([C@@H](CC)C(=O)NOC)CC[C@@H]1C)[C@H]1O[C@]2(C=C[C@@H](O)[C@]3(CC[C@@](C)([C@H]4CC[C@](O)(CC)[C@H](C)O4)O3)O2)[C@H](C)C[C@@H]1C | 17.3 | 16.3 | inactive | – | –
2 | – | CC[C@@H](C(=O)[C@@H](C)[C@@H](O)[C@H](C)[C@@H]1O[C@@H]([C@@H](CC)C(=O)N(C)O)CC[C@@H]1C)[C@H]1O[C@]2(C=C[C@@H](O)[C@]3(CC[C@@](C)([C@H]4CC[C@](O)(CC)[C@H](C)O4)O3)O2)[C@H](C)C[C@@H]1C | > 20 | > 20 | inactive | – | –
3 | – | CC[C@@H](C(=O)[C@@H](C)[C@@H](O)[C@H](C)[C@@H]1O[C@@H]([C@@H](CC)C(=O)N(C)OC)CC[C@@H]1C)[C@H]1O[C@]2(C=C[C@@H](O)[C@]3(CC[C@@](C)([C@H]4CC[C@](O)(CC)[C@H](C)O4)O3)O2)[C@H](C)C[C@@H]1C | 10.1 | 9.3 | inactive | – | –
4 | Active | CC[C@@H](C(=O)[C@@H](C)[C@@H](O)[C@H](C)[C@@H]1O[C@@H]([C@@H](CC)C(=O)NO)CC[C@@H]1C)[C@H]1O[C@]2(C=C[C@@H](O)[C@]3(CC[C@@](C)([C@H]4CC[C@](O)(CC)[C@H](C)O4)O3)O2)[C@H](C)C[C@@H]1C | 6.7 | 10 | inactive | – | –
5 | – | CC[C@@H](C(=O)[C@@H](C)[C@@H](O)[C@H](C)[C@@H]1O[C@@H]([C@@H](CC)C(=O)O)CC[C@@H]1C)[C@H]1O[C@]2(C=C[C@@H](O)[C@]3(CC[C@@](C)([C@H]4CC[C@](O)(CC)[C@H](C)O4)O3)O2)[C@H](C)C[C@@H]1C [SALINOMYCIN] | 0.52 | 0.59 | – | Active | 60
